Test results published in paper PMC4255739 (Journal of Medicinal Chemistry, 2014).
One block for each compound: values may come before it.

Experiments:
[1] = target: CYP3A4 (Homo sapiens, UniProt P08684); test: CYP450 panel inhibition, CYP3A4; conditions: human liver microsomes, pH 7.4, probe testosterone
[2] = target: T1, MMP-13 (Homo sapiens, UniProt P45452); test: Dual inhibition kinetics; type: biochemical
[3] = target: T1, MMP-13; test: Cartilage explant assay; type: biochemical; conditions: read-out: inhibition of cartilage degradation
[4] = system: MMP-1; conditions: read-out: IC50 MMP-1; antitarget selectivity; cited from earlier work
[5] = system: MMP-8; conditions: read-out: IC50 MMP-8; antitarget selectivity; cited from earlier work
[6] = target: T2, caspase 5 (Homo sapiens, UniProt P51878); test: Protease profiling panel, caspase 5; type: biochemical; conditions: 20 μM to 0.1 nM range
T2 sequence (P51878 138-434 limits assumed): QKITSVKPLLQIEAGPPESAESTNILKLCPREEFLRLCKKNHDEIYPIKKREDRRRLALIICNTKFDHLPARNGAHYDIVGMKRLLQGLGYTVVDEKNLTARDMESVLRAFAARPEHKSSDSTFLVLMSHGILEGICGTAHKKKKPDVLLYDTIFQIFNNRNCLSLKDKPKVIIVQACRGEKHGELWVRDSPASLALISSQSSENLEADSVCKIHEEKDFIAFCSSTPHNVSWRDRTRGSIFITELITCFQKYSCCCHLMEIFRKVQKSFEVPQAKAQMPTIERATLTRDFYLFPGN

[7] = target: T3, cathepsin K (Homo sapiens, UniProt P43235); test: Protease profiling panel, cathepsin K; type: biochemical; conditions: read-out: highest inhibitory activity against cathepsin K
T3 sequence (P43235 115-329): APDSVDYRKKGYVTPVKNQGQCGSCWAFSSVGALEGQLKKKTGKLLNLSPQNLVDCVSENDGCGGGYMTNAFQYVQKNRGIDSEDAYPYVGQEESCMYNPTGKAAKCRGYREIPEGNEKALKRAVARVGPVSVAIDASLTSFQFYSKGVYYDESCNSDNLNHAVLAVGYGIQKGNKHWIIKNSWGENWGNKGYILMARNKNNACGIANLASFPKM

[8] = target: T1, MMP-13; test: Single inhibitor kinetics, MMP-13 hydrolysis of fTHP-15; type: biochemical

Sequence of CYP3A4 (P08684 whole entry): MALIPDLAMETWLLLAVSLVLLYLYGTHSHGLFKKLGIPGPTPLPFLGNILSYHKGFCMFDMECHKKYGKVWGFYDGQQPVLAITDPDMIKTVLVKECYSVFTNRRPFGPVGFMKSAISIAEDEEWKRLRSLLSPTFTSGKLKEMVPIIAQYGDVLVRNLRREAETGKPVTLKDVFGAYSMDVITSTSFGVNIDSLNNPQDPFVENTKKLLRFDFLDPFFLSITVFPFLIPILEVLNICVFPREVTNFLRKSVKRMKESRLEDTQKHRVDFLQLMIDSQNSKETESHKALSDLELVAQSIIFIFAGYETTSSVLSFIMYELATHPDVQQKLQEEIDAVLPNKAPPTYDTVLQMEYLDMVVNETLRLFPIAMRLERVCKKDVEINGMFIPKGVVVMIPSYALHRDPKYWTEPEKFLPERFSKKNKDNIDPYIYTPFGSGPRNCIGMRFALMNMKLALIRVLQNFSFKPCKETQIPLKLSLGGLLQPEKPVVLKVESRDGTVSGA

inhibition at 20 µM [1]: 14%
B value (Yonetani–Theorell) ([2]; 1 (0–2 μM) in combination with 6 (AHA, 0–1.25 mM), B<1 = synergistic binding): < 1
B value (Yonetani–Theorell) ([2]; 1 in combination with 4, B<1 = positive cooperativity): < 1
B value (Yonetani–Theorell) ([2]; 1 in combination with 5, B<1 = synergistic binding): < 1
inhibition at 10 µM [3]: 69 ± 17%
Structure (SMILES): Oc1nc(SCc2ccc(Cl)cc2)nc2c1CCC2 [Compound 1]

activity against caspase 5 on inspection of dose response [6]: artifactual
inhibition at 20 µM [1]: 20%
inhibition at 20 µM [7]: 20%
Structure (SMILES): Cc1ccc(CSc2nc(O)c3c(n2)CCC3)cc1 [Compound 2]
IC50 [4]: > 40 µM
IC50 [5]: > 40 µM

Structure (SMILES): COC(=O)c1ccc(CSc2nc3c(c(=O)[nH]2)CCC3)cc1 [Compound 3]
IC50 [4]: > 40 µM
IC50 [5]: > 40 µM

pKi ([8]; from fTHP-15 Ki): 2.9
Ki ([8]; read-out: fTHP-15 Ki, fTHP-15 substrate, mixed inhibition model, nonlinear regression): 1190 µM
Structure (SMILES): CC(=O)NO [Compound 6, N-hydroxyacetamide]
